Where two headings read alike, the source gives them in different places.
Assays:
GRP94 [1] = biological target: T1, GRP94 (Mus musculus, UniProt P08113); design: a truncated version of GRP94, containing amino acids 1-355; made in house; host or cells: insect cells; settings: full-length GRP94, ref [14]; cited from earlier work
GRP94 [2] = settings: vast molar excess of peptide, 10 min 50° C. treatment of the protein
GRP94 [3] = biological target: T1, GRP94; experiment: Solid phase 96-well plate assay of peptide binding by recombinant GRP94 N-terminal fragments; design: His6 tagged N355, comprising of amino acids 34-355 of GRP94; made in house; host or cells: E. coli M15; species or system murine
GRP94 [4] = biological target: GRP94 (Homo sapiens, UniProt P14625); experiment: GRP94 binding of antigenic peptides (Table 3)
GRP94 (Homo sapiens, UniProt P14625), sequence (P14625 22-803, species assumed): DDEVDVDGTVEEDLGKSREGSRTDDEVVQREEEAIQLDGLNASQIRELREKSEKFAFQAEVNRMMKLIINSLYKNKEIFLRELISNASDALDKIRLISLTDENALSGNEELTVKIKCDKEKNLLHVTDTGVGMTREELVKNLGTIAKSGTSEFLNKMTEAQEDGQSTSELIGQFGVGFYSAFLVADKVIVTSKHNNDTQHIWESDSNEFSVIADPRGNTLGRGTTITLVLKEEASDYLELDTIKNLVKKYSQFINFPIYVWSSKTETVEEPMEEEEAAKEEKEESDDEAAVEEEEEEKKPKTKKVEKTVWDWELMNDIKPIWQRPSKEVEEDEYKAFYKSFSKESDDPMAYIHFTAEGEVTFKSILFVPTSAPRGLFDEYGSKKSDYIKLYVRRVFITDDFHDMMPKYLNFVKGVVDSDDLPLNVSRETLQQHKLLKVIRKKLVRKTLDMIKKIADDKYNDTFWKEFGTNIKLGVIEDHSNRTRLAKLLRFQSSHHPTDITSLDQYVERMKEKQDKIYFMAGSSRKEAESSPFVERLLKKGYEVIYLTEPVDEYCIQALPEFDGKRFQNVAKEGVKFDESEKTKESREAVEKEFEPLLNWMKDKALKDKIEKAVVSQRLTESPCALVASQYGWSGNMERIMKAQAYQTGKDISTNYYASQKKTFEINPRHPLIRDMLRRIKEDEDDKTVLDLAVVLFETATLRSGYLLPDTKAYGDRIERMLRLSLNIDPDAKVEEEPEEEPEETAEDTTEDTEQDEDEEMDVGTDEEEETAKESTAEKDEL

WT ES cells = settings: 1 mM EGTA, FIG. 14E-F
grp94-/- ES cells = settings: 1 mM EGTA, FIG. 14E-F
GRP94 [5] = experiment: Solid phase 96-well plate assay of peptide binding by recombinant GRP94 N-terminal fragments; design: species or system murine
[6] = system: purified mouse dendritic cells; experiment: Binding and uptake of GRP94 N-terminal domain by dendritic cells; assay type: cell-based; settings: bound at 40° C., warmed to 37° C., into endosomal vesicles, FIG. 16
[7] = system: radicicol-binding pocket of GRP94; experiment: Radicicol binding judged by conformational change on blue native gel electrophoresis; design: species or system murine; settings: 300 μM radicicol or DMSO
tumors = settings: vaccinated mice, Blachere et al. 1997; cited from earlier work
[8] = antigenic peptides that can be loaded on GRP94

**Q.** Which “Fraction of the protein shown to bind peptides” value (GRP94 [1]) does the source give for Glucose Regulated Protein 94 [GRP94] here?
**A.** The value was “about 1%”.

**Q.** And the “Fraction of the protein that can be loaded with peptide” value (GRP94 [2])?
**A.** The value was “up to 85%”.

**Q.** Which “Binder or non-binder of GRP94 in the peptide binding assay” value (GRP94 [3]) does the source give for RGYVYQGL [VSV8] here?
**A.** Its value is “binder”.

**Q.** And the GRP94 binding (GRP94 [4])?
**A.** Its GRP94 binding is “yes”.

**Q.** For FLWGPRALV [MAGE 3], which GRP94 binding (GRP94 [4]; [8]) is on record?
**A.** Its GRP94 binding is “yes”.

**Q.** Which results are given for O=C(O)CN(CCOCCOCCN(CC(=O)O)CC(=O)O)CC(=O)O [EGTA]?
**A.** Growth under Ca++-chelating conditions, WT cells (WT ES cells): can grow for 5 days; Growth under Ca++-chelating conditions, -/- cells (grp94-/- ES cells): cannot grow

**Q.** For NO [Hydroxylamine], which “Effect of histidine modification on peptide-binding activity of N34-355” value (GRP94 [3]) is on record?
**A.** The value was “restored the activity”.

**Q.** Which GRP94 binding (GRP94 [4]; [8]) does the source give for SIINFEKL [OVA 257-264] here?
**A.** Its GRP94 binding is “yes”.

**Q.** For KRQIYTDLEMNRLGK [PepA], which “Binder or non-binder of GRP94 in the peptide binding assay” value (GRP94 [3]) is on record?
**A.** The value was “binder”.

**Q.** Which IC50 (GRP94 [3]; N34-355 binding to peptide A, FIG. 6B, read-out: Imidazole concentration that reduced peptide binding by half) does the source give for c1c[nH]cn1 [imidazole] here?
**A.** The IC50 was 6 mM.

**Q.** With RAHYNIVTF (RAH) as the molecule, how does the GRP94 binding (GRP94 [4]) read?
**A.** The GRP94 binding was “yes, weak”.

**Q.** With CCOC(=O)OC(=O)OCC [DEPC, Diethyl pyrocarbonate] as the molecule, how does the “Effect of histidine modification on peptide-binding activity of N34-355” value (GRP94 [3]; His6 tag cleaved, peptide A-coated plates, 0.7 μg protein per well, FIG. 6C) read?
**A.** Its value is “abolished”.

B1: N34-355: Recombinant GRP94 fragment, amino acids 34-355, N-terminal His6 tag and factor Xa site, expressed in E. coli (protein)
chain: PYNGTGSAIQLDGLNASQIRELREKSEKFAFQAEVNRMMKLIINSLYKNKEIFLRELISNASDALDKIRLISLTDENALSGNEELTVKIKCDKEKNLLHVTDTGVGMTREELVKNLGTIAKSGTSEFLNKMTEAQEDGQSTSELIGQFGVGFYSAFLVADKVIVTSKHNNDTQHIWESDSNEFSVIADPRGNTLGRGTTITLVLKEEASDYLELDTIKNLVKKYSQFINFPIYVWSSKTETVEEPMEEEEAAKEEKEESDDEAAVEEEEEEKKPKTKKVEKTVWDWELMNDIKPIWQRPSKEVEEDEYKAFYKSFSKESDDPMAYIHFT
modifications: left off: small tags and cut ends
notes: Recombinant GRP94 fragment, amino acids 34-355, N-terminal His6 tag and factor Xa site, expressed in E. coli
**Q.** What does the source list for B1?
**A.** Binding of VSV8 peptide (dose binding curve) (GRP94 [3]; VSV8-coated plates, compared with N1-355, FIG. 1B): binding curve very similar to that of N1-355; Inhibition of peptide binding activity by pre-treatment with radicicol (GRP94 [5]): inhibited significantly; Uptake by dendritic cells [6]: internalized

B2: H125D: N34-355 with His125 mutated to Asp (protein, UniProt P14625 34-355, looked up, variant H125D)
chain: DLGKSREGSRTDDEVVQREEEAIQLDGLNASQIRELREKSEKFAFQAEVNRMMKLIINSLYKNKEIFLRELISNASDALDKIRLISLTDENALSGNEELTVKIKCDKEKNLLDVTDTGVGMTREELVKNLGTIAKSGTSEFLNKMTEAQEDGQSTSELIGQFGVGFYSAFLVADKVIVTSKHNNDTQHIWESDSNEFSVIADPRGNTLGRGTTITLVLKEEASDYLELDTIKNLVKKYSQFINFPIYVWSSKTETVEEPMEEEEAAKEEKEESDDEAAVEEEEEEKKPKTKKVEKTVWDWELMNDIKPIWQRPSKEVEEDEY
modifications: fragment 34-355 His6 tag, factor Xa site
notes: N34-355 with His125 mutated to Asp
**Q.** For B2, which Peptide binding activity (GRP94 [5]; peptide A-coated plates, 0.7 or 2 μg protein, FIG. 7A) is on record?
**A.** Its Peptide binding activity is “almost no peptide binding activity”.

**Q.** What about the “Radicicol binding (conformational change, native gel mobility, 9G10 epitope)” value [7] of the same molecule?
**A.** The value was “retained its ability to bind the inhibitor radicicol”.

B3: GRP94 bound to tumor peptides: GRP94 complexed with tumor peptides, used to vaccinate mice (Srivastava's lab) (protein, UniProt P08113 22-802, looked up)
Endoplasmin: DDEVDVDGTVEEDLGKSREGSRTDDEVVQREEEAIQLDGLNASQIRELREKSEKFAFQAEVNRMMKLIINSLYKNKEIFLRELISNASDALDKIRLISLTDENALAGNEELTVKIKCDKEKNLLHVTDTGVGMTREELVKNLGTIAKSGTSEFLNKMTEAQEDGQSTSELIGQFGVGFYSAFLVADKVIVTSKHNNDTQHIWESDSNEFSVIADPRGNTLGRGTTITLVLKEEASDYLELDTIKNLVRKYSQFINFPIYVWSSKTETVEEPLEEDEAAKEEKEESDDEAAVEEEEEEKKPKTKKVEKTVWDWELMNDIKPIWQRPSKEVEEDEYKAFYKSFSKESDDPMAYIHFTAEGEVTFKSILFVPTSAPRGLFDEYGSKKSDYIKLYVRRVFITDDFHDMMPKYLNFVKGVVDSDDLPLNVSRETLQQHKLLKVIRKKLVRKTLDMIKKIADEKYNDTFWKEFGTNIKLGVIEDHSNRTRLAKLLRFQSSHHSTDITSLDQYVERMKEKQDKIYFMAGSSRKEAESSPFVERLLKKGYEVIYLTEPVDEYCIQALPEFDGKRFQNVAKEGVKFDESEKTKESREATEKEFEPLLNWMKDKALKDKIEKAVVSQRLTESPCALVASQYGWSGNMERIMKAQAYQTGKDISTNYYASQKKTFEINPRHPLIRDMLRRIKEDEDDKTVMDLAVVLFETATLRSGYLLPDTKAYGDRIERMLRLSLNIDPEAQVEEEPEEEPEDTSEDAEDSEQDEGEEMDAGTEEEEEETEKESTEKDEL
modifications: complexed with tumor peptides
**Q.** For B3, which “Improvement of T cell responses on tumor challenge compared to control mice” value (tumors) is on record?
**A.** The value was 10-200 fold.
